Measurements from patent publication US20230241041A1, “LURBINECTEDIN IN THE TREATMENT OF MALIGNANT MESOTHELIOMA” (PHARMA MAR, S.A., priority 2019, published 2023).

Tests used:
[1] = test system: progressive malignant pleural mesothelioma (MPM); assay: Phase II single-arm, multi-centric trial of lurbinectedin monotherapy: efficacy (PFS, OS, response); assay type: in vivo, human
Protocol: In order to evaluate the efficacy of lurbinectedin in the treatment of progressive malignant pleural mesothelioma (MPM), a Phase II single-arm, multi-centric, international trial was performed.
(§1) The primary endpoint was progression-free survival at 12 weeks (PFS12wks), defined as the absence of progression or death due to any cause during the first 12 weeks (±2 weeks) after registration. Secondary endpoints included progression-free survival (PFS), defined as the time from registration until radiologic progression or death due to any cause, whichever occurs first; overall survival (OS), defined as the time from registration until death due to any cause; objective response rate (ORR), defined as the proportion of patients who achieved complete (CR) or partial remission (PR) during the trial treatment; disease control rate (DCR) defined as the sum of CR, PR and stable disease (SD) at least for 12 weeks (SD≥12wks); duration of disease control, defined as the time from registration to progression or death due to any cause whichever occurs first for patients who had CR, PR or SD≥12wks; and adverse events (AE). All AEs were assessed according to NCI CTCAE v4.03. Patients lost to follow-up were censored at the last date they were known to be alive.
This trial was conducted in 6 centers in Switzerland and 3 in Italy. Subjects enrolled in this clinical trial were adult (age ≥ 18 years) patients having histologically or cytologically confirmed MPM, an Eastern Cooperative Oncology Group (ECOG) status of 0-1 and had progressed on or after one line of platinum-pemetrexed chemotherapy without being amenable to local treatment. Further inclusion criteria required an adequate hepatic, renal and bone marrow function (absolute neutrophil count ≥ 2 × 10^9 /L, platelet count ≥ 100 × 10^9 /L; aspartate aminotransferase and alanine aminotransferase ≤ 3.0 × ULN; creatinine clearance ≥ 30 mL/min/1.73).
Eligible patients could additionally have received one prior line of immunotherapy, but more than one lines of chemotherapy, including pemetrexed rechallenge, were not allowed. Further exclusion criteria covered known brain metastases or leptomeningeal disease, history of other hematologic or primary solid tumors within five years prior to registration (with the exception of curatively treated basal or squamous cell carcinoma of the skin, properly treated in situ malignant melanoma, in situ carcinoma of the uterine cervix or pT1-2 prostate cancer with Gleason score ≤6), concomitant use of anti-cancer surgery or radiotherapy (except for local pain control or pleurodesis) and adverse events Grade ≥2 derived from previous treatment.
(§2) Lurbinectedin was given every 3 weeks at a dose of 3.2 mg/m^2 as a 1-hour intravenous infusion through peripheral or central lines. Standard antiemetic prophylaxis (corticosteroids or serotonin (5-HT3) antagonists) was administered prior to chemotherapy. […] In case of third re-emergence of Grade 3-4 toxicity treatment was permanently discontinued. Specifically for leucopenia Grade 3-4 and/or febrile neutropenia there was mandatory secondary G-CSF prophylaxis together with dose reduction by one level.
(§3) Patients were followed clinically and with laboratory tests at time of chemotherapy administration and additionally with contrast enhanced CT- or PET/CT scans every 6 weeks. […] In case of treatment discontinuation for any reason, adverse events were reported for 30 days after last treatment application. For those cases where lurbinectedin was stopped without manifest progression radiology scans were performed every 8 weeks during the follow-up period otherwise patients were followed-up via telephone every 12 weeks for survival status.
A Simon two-stage design was used as presented by Simon R. (Control Clin Trials. 1989 Mar;10(1):1-10). We had set our null-hypothesis p0 at PFS12wks ≤35%, translated to a median PFS of ≤ 2 months. […]

[2] = Phase II trial of lurbinectedin monotherapy: adverse events (NCI CTCAE v4.03) and tolerability; assay type: in vivo
Excerpt: as §1
as §2, with “Lurbinectedin was given every 3 weeks at a dose of 3.2 mg/m^2 as a 1-hour intravenous infusion through peripheral or central lines.” left out
as §3

COc1ccc2[nH]c3c(c2c1)CCN[C@]31CS[C@@H]2c3c(OC(C)=O)c(C)c4c(c3[C@H](COC1=O)N1[C@@H]2[C@H]2c3c(cc(C)c(OC)c3O)C[C@@H]([C@@H]1O)N2C)OCO4 (stereo in doubt) [lurbinectedin]
patients with disease control lasting for 8 months or longer ([1]; 6/22 patients): 27.3% | median OS ([1]; <6 months progression-free interval on prior pemetrexed): 8.8 months | median OS ([1]; >=6 months progression-free interval on prior pemetrexed): 13.3 months | PFS12wks ([1]; additional prior immunotherapy): 70% | median OS ([1]; additional prior immunotherapy): 10.4 months | median PFS ([1]; additional prior immunotherapy): 3.2 months | DCR ([1]; all 42 patients): 52.4% | ORR ([1]; all 42 patients): 4.8% | complete remission (CR) ([1]; all 42 patients): One | partial remission (PR) ([1]; all 42 patients): one | stable disease ([1]; all 42 patients): 20 patients | PFS12wks (primary endpoint) reached ([1]; all patients, 22/42, 90% CI 38.7-63.5, p=0.015): 52.4% | PFS12wks, Kaplan-Meier method at 12 weeks ([1]; all patients, 90% CI 49.7-74.4): 63.5% | median PFS ([1]; all patients, 95% CI 2.6-5.5, median follow-up 14.9 months): 4.1 months | 9 months PFS% ([1]; all patients, 95% CI 4.7-24.9): 12.7% | median OS ([1]; all patients, 95% CI 8.8-14.7): 11.1 months | 6 months PFS% ([1]; all patients, 95% CI 17.1-44.9): 30.5% | 12 months OS ([1]; all patients, 95% CI 28.1-60.3): 44.9% | 3 months PFS% ([1]; all patients, 95% CI 41.8-71.7): 58.4% | 6 months OS ([1]; all patients, 95% CI 57.7-84.6): 73.8% | PFS12wks ([1]; epithelioid histology): 63.6% | median OS ([1]; epithelioid histology): 12.4 months | median PFS ([1]; epithelioid histology): 4.1 months | PFS12wks reached (interim analysis) ([1]; first 21 patients, Simon 2-stage, 11 patients): 52.4% | PFS12wks ([1]; non-epithelioid histology): 62.5% | median OS ([1]; non-epithelioid histology): 10.0 months | median PFS ([1]; non-epithelioid histology): 3.7 months | patients who had died at the time of analyses ([1]; of 42, progression 23, viral pneumonitis 1, suicide 1, heart failure 1): 26 patients | median duration of disease control ([1]; patients with CR, PR or SD>=12wks, 95% CI 5.2-7.4): 6.6 months | PFS12wks ([1]; prior chemotherapy alone): 61.4% | median OS ([1]; prior chemotherapy alone): 11.9 months | median PFS ([1]; prior chemotherapy alone): 4.1 months | median PFS ([1]; progressed on previous platinum-pemetrexed in >=6 months): 4.3 months | PFS12wks ([1]; progressed on previous platinum-pemetrexed in >=6 months (28 patients)): 67.9% | median PFS ([1]; progressed on previous platinum-pemetrexed within <6 months): 3.0 months | PFS12wks ([1]; progressed on previous platinum-pemetrexed within <6 months (14 patients)): 53.8% | AEs ([2]; Grade 5, N = 42): 0 (0.0%) n (%) | Lurbinectedin-related AEs ([2]; Grade 5, N = 42): 0.0 (0.0%) n (%) | treatment-related death ([2]; N=42): no treatment-related death | Abdominal pain, lurbinectedin-related AE ([2]; human, in vivo): 1 (2.4%) n (%) | Alkaline phosphatase increased, lurbinectedin-related AE ([2]; human, in vivo): 1 (2.4%) n (%) | Aspartate aminotransferase increased, lurbinectedin-related AE ([2]; human, in vivo): 2 (4.8%) n (%) | Blood bilirubin increased, lurbinectedin-related AE ([2]; human, in vivo): 3 (7.1%) n (%) | Cholangitis, lurbinectedin-related AE ([2]; human, in vivo): 1 (2.4%) n (%) | Confusion, lurbinectedin-related AE ([2]; human, in vivo): 1 (2.4%) n (%) | Cough, lurbinectedin-related AE ([2]; human, in vivo): 1 (2.4%) n (%) | Creatinine increased, lurbinectedin-related AE ([2]; human, in vivo): 1 (2.4%) n (%) | Diarrhea, lurbinectedin-related AE ([2]; human, in vivo): 3 (7.1%) n (%) | Dizziness, lurbinectedin-related AE ([2]; human, in vivo): 2 (4.8%) n (%) | Dry skin, lurbinectedin-related AE ([2]; human, in vivo): 2 (4.8%) n (%) | Dysgeusia, lurbinectedin-related AE ([2]; human, in vivo): 1 (2.4%) n (%) | Dyspepsia, lurbinectedin-related AE ([2]; human, in vivo): 1 (2.4%) n (%) | Dysphagia, lurbinectedin-related AE ([2]; human, in vivo): 1 (2.4%) n (%) | Edema limbs, lurbinectedin-related AE ([2]; human, in vivo): 1 (2.4%) n (%) | Febrile neutropenia, lurbinectedin-related AE ([2]; human, in vivo): 4 (9.5%) n (%) | Flu like symptoms, lurbinectedin-related AE ([2]; human, in vivo): 1 (2.4%) n (%) | Halitosis, lurbinectedin-related AE ([2]; human, in vivo): 1 (2.4%) n (%) | Headache, lurbinectedin-related AE ([2]; human, in vivo): 1 (2.4%) n (%) | Hypertension, lurbinectedin-related AE ([2]; human, in vivo): 1 (2.4%) n (%) | Hypomagnesemia, lurbinectedin-related AE ([2]; human, in vivo): 5 (11.9%) n (%) | Infection of unknown origin, lurbinectedin-related AE ([2]; human, in vivo): 1 (2.4%) n (%) | Infections with unknown origine, lurbinectedin-related AE ([2]; human, in vivo): 1 (2.4%) n (%) | Insomnia, lurbinectedin-related AE ([2]; human, in vivo): 1 (2.4%) n (%) | Lung infection, lurbinectedin-related AE ([2]; human, in vivo): 1 (2.4%) n (%) | Memory impairment, lurbinectedin-related AE ([2]; human, in vivo): 1 (2.4%) n (%) | Pancytopenia, lurbinectedin-related AE ([2]; human, in vivo): 1 (2.4%) n (%) | Productive cough, lurbinectedin-related AE ([2]; human, in vivo): 1 (2.4%) n (%) | Skin infection, lurbinectedin-related AE ([2]; human, in vivo): 1 (2.4%) n (%) | Superficial thrombophlebitis, lurbinectedin-related AE ([2]; human, in vivo): 1 (2.4%) n (%) | Urea increased, lurbinectedin-related AE ([2]; human, in vivo): 1 (2.4%) n (%) | Vertigo, lurbinectedin-related AE ([2]; human, in vivo): 1 (2.4%) n (%) | Watering eyes, lurbinectedin-related AE ([2]; human, in vivo): 1 (2.4%) n (%) | Weight loss, lurbinectedin-related AE ([2]; human, in vivo): 2 (4.8%) n (%) | White blood cell decreased, lurbinectedin-related AE ([2]; human, in vivo): 3 (7.1%) n (%) | all other Grade 3-4 lurbinectedin-related toxicities ([2]; human, in vivo): < 10% | dose reductions for which AEs were the reason ([2]; human, in vivo): 91.7% | fatigue, lurbinectedin-related AE Grade 3-4 ([2]; human, in vivo): 16.7% | febrile neutropenia ([2]; human, in vivo): 9.5% | herpes zoster, lurbinectedin-related AE ([2]; human, in vivo): 1 (2.4%) n (%) | neutropenia, lurbinectedin-related AE Grade 3-4 ([2]; human, in vivo): 23.8% | patients showing no lurbinectedin-related AEs ([2]; human, in vivo): AE: adverse event; ^1: 4 patients (9.5%) showed no lurbinectedin-related AEs | patients with at least one adverse event (AE) of any grade ([2]; human, in vivo): 100% | patients with at least one dose reduction ([2]; human, in vivo): 28.6% | patients with lurbinectedin-related AEs Grade 3-4 ([2]; human, in vivo): 47.6% | patients with treatment delayed at least once ([2]; human, in vivo): 50% | patients with treatment related AEs (any grade) ([2]; human, in vivo): 90.5% | patients with two dose reductions ([2]; human, in vivo): 2/42 | treatment delay caused by AEs ([2]; human, in vivo): 26.2% | Mucositis oral, lurbinectedin-related AE ([2]; human, in vivo, po): 1 (2.4%) n (%) | treatment discontinuation due to toxicity ([2]; in vivo): no treatment discontinuation due to toxicity

B1: G-CSF: granulocyte colony-stimulating factor, given as prophylaxis for leucopenia/febrile neutropenia (protein, UniProt P09919 31-207, looked up)
Granulocyte …: TPLGPASSLPQSFLLKCLEQVRKIQGDGAALQEKLVSECATYKLCHPEELVLLGHSLGIPWAPLSSCPSQALQLAGCLSQLHSGLFLYQGLLQALEGISPELGPTLDTLQLDVADFATTIWQQMEELGMAPALQPTQGAMPAFASAFQRRAGGVLVASHLQSFLEVSYRVLRHLAQP
incidence of grade 3-4 neutropenia ([2]; G-CSF given in patients on lurbinectedin): diminished
